Consider 21 compounds from PubChem BioAssay AID256 (DTP/NCI, 2004).

Values joined by “and” are separate entries in the source; they are usually repeats but may differ in a detail not shown here. Equal values may be shown once. Toxic doses and inconclusive results are not listed.

The subject of this assay is CD2F1 mice, L1210 leukemia ip, survival T/C. The assay is described as follows: NCI In Vivo Anticancer Drug Screen. Data for tumor model L1210 Leukemia (intraperitoneal) in CD2F1 (CDF1) mice. As to conditions: higher = longer survival. The essentials: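 Mice carrying a transplanted tumor received test compound or vehicle alone. The value is the measurement in the treated group divided by that in the vehicle-treated control group.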

Setting [1] is: endpoint: mean survival time, dose: 100.0 mg/kg/injection, schedule: Q04DX003 (ip), vehicle: saline with Tween-80.
Setting [2] is: endpoint: mean survival time, dose: 200.0 mg/kg/injection, schedule: Q04DX003 (ip), vehicle: saline with Tween-80.
The mark [3] stands for this setting: endpoint: mean survival time, dose: 400.0 mg/kg/injection, schedule: Q04DX003 (ip), vehicle: saline with Tween-80.
Where [4] appears, read: endpoint: mean survival time, dose: 100.0 mg/kg/injection, schedule: Q04DX002 (ip), vehicle: saline with Tween-80.
Where [5] appears, read: endpoint: mean survival time, dose: 200.0 mg/kg/injection, schedule: Q04DX002 (ip), vehicle: saline with Tween-80.
Setting [6] is: endpoint: mean survival time, dose: 400.0 mg/kg/injection, schedule: Q04DX002 (ip), vehicle: saline with Tween-80.
Where [7] appears, read: endpoint: mean survival time, dose: 50.0 mg/kg/injection, schedule: Q01DX001 (ip), vehicle: saline.
The mark [8] stands for this setting: endpoint: mean survival time, dose: 50.0 mg/kg/injection, schedule: Q01DX009 (ip), vehicle: saline.
The mark [9] stands for this setting: endpoint: mean survival time, dose: 100.0 mg/kg/injection, schedule: Q01DX001 (ip), vehicle: saline.
[10] abbreviates: endpoint: mean survival time, dose: 100.0 mg/kg/injection, schedule: Q01DX009 (ip), vehicle: saline.

As for `Clc1ccc(CSCc2ccc(Cl)cc2Cl)c(Cl)c1`, the T/C runs as follows: (endpoint: mean survival time, dose: 100.0 mg/kg/injection, schedule: Q01DX009 (ip), vehicle: saline with Tween-80) 96 % of control; under setting [1], 100 % of control; (endpoint: mean survival time, dose: 200.0 mg/kg/injection, schedule: Q01DX009 (ip), vehicle: saline with Tween-80) 100 % of control; under setting [2], 104 % of control; (endpoint: mean survival time, dose: 400.0 mg/kg/injection, schedule: Q01DX009 (ip), vehicle: saline with Tween-80) 98 % of control; under setting [3], 100 % of control.
`CCN(CC)Cc1cc(Nc2ncnc3sc(C)c(C)c23)ccc1O`: the T/C runs as follows: under setting [1], 92 % of control; under setting [2], 88 % of control; under setting [3], 91 % of control.
On to `CC[P+](C)(CC)c1cccc(OC(=O)NC)c1`, for which the T/C (endpoint: mean survival time, dose: 0.05 mg/kg/injection, schedule: Q01DX001 (ip), vehicle: saline) is 96 % of control; the T/C (endpoint: mean survival time, dose: 0.1 mg/kg/injection, schedule: Q01DX001 (ip), vehicle: saline) was 102 % of control; the T/C (endpoint: mean survival time, dose: 0.2 mg/kg/injection, schedule: Q01DX001 (ip), vehicle: saline) was 104 % of control.
As for `Fc1ccc(CC(F)F)cc1`, the T/C reads like this: (endpoint: mean survival time, dose: 100.0 mg/kg/injection, schedule: Q01DX001 (ip), vehicle: saline with Tween-80) 107 % of control; (endpoint: mean survival time, dose: 200.0 mg/kg/injection, schedule: Q01DX001 (ip), vehicle: saline with Tween-80) 98 % of control; (endpoint: mean survival time, dose: 400.0 mg/kg/injection, schedule: Q01DX001 (ip), vehicle: saline with Tween-80) 103 % of control.
As for `c1ccc(C(c2ccccc2)C(c2ccccc2)c2ccccc2)cc1`, the T/C is 89 % of control (endpoint: mean survival time, dose: 18.7 mg/kg/injection, schedule: Q01DX009 (ip), vehicle: saline with Tween-80) and 89 % of control (endpoint: mean survival time, dose: 37.5 mg/kg/injection, schedule: Q01DX009 (ip), vehicle: saline with Tween-80).
Regarding `Cc1[nH]c(=O)[nH]c(=O)c1NC(=O)c1ccccc1[N+](=O)[O-]`, the T/C (endpoint: mean survival time, dose: 12.5 mg/kg/injection, schedule: Q01DX009 (ip), vehicle: saline with Tween-80) is 98 % of control; the T/C (endpoint: mean survival time, dose: 12.5 mg/kg/injection, schedule: Q04DX003 (ip), vehicle: saline sonified) was 100 % of control; the T/C (endpoint: mean survival time, dose: 25.0 mg/kg/injection, schedule: Q01DX009 (ip), vehicle: saline with Tween-80) was 104 % of control; the T/C (endpoint: mean survival time, dose: 25.0 mg/kg/injection, schedule: Q04DX003 (ip), vehicle: saline sonified) is 103 % of control; the T/C (endpoint: mean survival time, dose: 50.0 mg/kg/injection, schedule: Q01DX009 (ip), vehicle: saline with Tween-80) was 97 % of control; the T/C (endpoint: mean survival time, dose: 50.0 mg/kg/injection, schedule: Q04DX003 (ip), vehicle: saline sonified) is 94 % of control.
For `N#CCCN(C(=S)Nc1cccc(C(F)(F)F)c1)C1CCCCC1`, the T/C is, setting by setting: (endpoint: mean survival time, dose: 12.5 mg/kg/injection, schedule: Q01DX009 (ip), vehicle: Klucel (hydroxypropylcellulose) (HPC)) 92 % of control; (endpoint: mean survival time, dose: 25.0 mg/kg/injection, schedule: Q01DX009 (ip), vehicle: Klucel (hydroxypropylcellulose) (HPC)) 97 % of control; (endpoint: mean survival time, dose: 50.0 mg/kg/injection, schedule: Q01DX009 (ip), vehicle: Klucel (hydroxypropylcellulose) (HPC)) 98 % of control; (endpoint: mean survival time, dose: 100.0 mg/kg/injection, schedule: Q01DX009 (ip), vehicle: Klucel (hydroxypropylcellulose) (HPC)) 98 % of control; (endpoint: mean survival time, dose: 200.0 mg/kg/injection, schedule: Q01DX009 (ip), vehicle: Klucel (hydroxypropylcellulose) (HPC)) 98 % of control; (endpoint: mean survival time, dose: 400.0 mg/kg/injection, schedule: Q01DX009 (ip), vehicle: Klucel (hydroxypropylcellulose) (HPC)) 101 % of control. The T/C (endpoint: median survival time, dose: 100.0 mg/kg/injection, schedule: Q01DX009 (ip), vehicle: Klucel (hydroxypropylcellulose) (HPC)) is 101 % of control; the T/C (endpoint: median survival time, dose: 200.0 mg/kg/injection, schedule: Q01DX009 (ip), vehicle: Klucel (hydroxypropylcellulose) (HPC)) was 103 % of control; the T/C (endpoint: median survival time, dose: 400.0 mg/kg/injection, schedule: Q01DX009 (ip), vehicle: Klucel (hydroxypropylcellulose) (HPC)) was 104 % of control.
Consider `O=C(COc1ccc(Cl)c(Cl)c1)Nc1ccc[n+](Cc2cccc(Cl)c2S(=O)(=O)F)c1`, for which the T/C by setting is: under setting [1], 97 % of control; under setting [2], 105 % of control.
As to `CCCCCCCCCCCCCCCCCCCCCC(=O)Nc1ccn(C2OC(CO)C(O)C2O)c(=O)n1` (centres undefined), the T/C was 212 % of control under setting [4], 253 % of control under setting [5] and 325 % of control under setting [6].
As to `O=C1c2ccccc2C(=O)N1CN1CCC(CCCC2CCN(CN3C(=O)c4ccccc4C3=O)CC2)CC1`, the T/C is, setting by setting: (endpoint: mean survival time, dose: 25.0 mg/kg/injection, schedule: Q04DX003 (ip), vehicle: saline with Tween-80) 95 % of control; (endpoint: mean survival time, dose: 50.0 mg/kg/injection, schedule: Q04DX003 (ip), vehicle: saline with Tween-80) 95 % of control; under setting [1], 95 % of control.
As to `CS/C([S-])=N/[NH-].CS/C([S-])=N/[NH-].[Ni]`, the T/C was 97 % of control (endpoint: mean survival time, dose: 3.13 mg/kg/injection, schedule: Q01DX009 (ip), vehicle: saline with Tween-80) and 102 % of control (endpoint: mean survival time, dose: 12.5 mg/kg/injection, schedule: Q01DX001 (ip), vehicle: saline with Tween-80).
Consider `O=C(O)C1CCC(CC2CCCCC2)CC1` (centres undefined), for which the T/C reads like this: under setting [1], 93 % of control; under setting [2], 94 % of control; under setting [3], 104 % of control.
As to `C[N+](C)(C)CSSC[N+](C)(C)C`, the T/C is, setting by setting: (endpoint: mean survival time, dose: 12.5 mg/kg/injection, schedule: Q04DX002 (ip), vehicle: saline) 96 % of control; (endpoint: mean survival time, dose: 25.0 mg/kg/injection, schedule: Q04DX002 (ip), vehicle: saline) 96 % of control; (endpoint: mean survival time, dose: 50.0 mg/kg/injection, schedule: Q04DX002 (ip), vehicle: saline) 103 % of control.
`Cc1nc(C)c(C#N)c(=O)[nH]1`: the T/C reads like this: under setting [4], 97 % of control; under setting [5], 97 % of control; under setting [6], 97 % of control.
As to `CCOC(=O)c1cnn(CCO)c1N`, the T/C was 100 % of control (endpoint: mean survival time, dose: 50.0 mg/kg/injection, schedule: Q04DX003 (ip), vehicle: water); 97 % of control (endpoint: mean survival time, dose: 100.0 mg/kg/injection, schedule: Q04DX003 (ip), vehicle: water); 101 % of control (endpoint: mean survival time, dose: 200.0 mg/kg/injection, schedule: Q04DX003 (ip), vehicle: water); 103 % of control and 107 % of control (endpoint: mean survival time, dose: 400.0 mg/kg/injection, schedule: Q04DX003 (ip), vehicle: water); 101 % of control (endpoint: mean survival time, dose: 600.0 mg/kg/injection, schedule: Q04DX003 (ip), vehicle: water); 105 % of control (endpoint: mean survival time, dose: 800.0 mg/kg/injection, schedule: Q04DX003 (ip), vehicle: water).
On to `CN(C)c1nc2c(N)ncnc2n1C1OC(CO)C(O)C1O` (centres undefined), for which the T/C by setting is: (endpoint: mean survival time, dose: 10.0 mg/kg/injection, schedule: Q04DX002 (ip), vehicle: saline with Tween-80) 103 % of control; (endpoint: mean survival time, dose: 20.0 mg/kg/injection, schedule: Q04DX002 (ip), vehicle: saline with Tween-80) 98 % of control; (endpoint: mean survival time, dose: 40.0 mg/kg/injection, schedule: Q04DX002 (ip), vehicle: saline with Tween-80) 98 % of control; under setting [7], 100 % of control; under setting [8], 123 % of control; under setting [9], 106 % of control. For the same compound, the T/C by setting is: under setting [10], 100 % of control; (endpoint: mean survival time, dose: 200.0 mg/kg/injection, schedule: Q01DX001 (ip), vehicle: saline) 102 % of control.
Take `CN(C)Cc1ccc2ccccc2c1`: the T/C is, setting by setting: under setting [7], 102 % of control; under setting [9], 97 % of control.
With `CC1(C)COCN1COCCOCN1COCC1(C)C`, the T/C by setting is: (endpoint: mean survival time, dose: 6.25 mg/kg/injection, schedule: Q01DX009 (ip), vehicle: saline) 97 % of control and 98 % of control; (endpoint: mean survival time, dose: 12.5 mg/kg/injection, schedule: Q01DX009 (ip), vehicle: saline) 100 % of control and 101 % of control; (endpoint: mean survival time, dose: 25.0 mg/kg/injection, schedule: Q01DX009 (ip), vehicle: saline) 105 % of control and 107 % of control; under setting [8], 106 % of control and 107 % of control; under setting [10], 95 % of control and 105 % of control.
`CN(C)/N=N/c1[nH]ncc1C(N)=O`: the T/C reads like this: (endpoint: mean survival time, dose: 150.0 mg/kg/injection, schedule: Q01DX001 (oral), vehicle: saline) 121 % of control; (endpoint: mean survival time, dose: 1200.0 mg/kg/injection, schedule: Q01DX001 (oral), vehicle: saline) 158 % of control.
On to `Nc1nc2nc3c(nc2c(=O)[nH]1)CN(c1ccc(C(=O)O)cc1)C3=O`, for which the T/C is 95 % of control under setting [1] and 97 % of control under setting [2].
In the case of `Cc1ccc(C2CC(c3ccccc3)=NN2C)cc1` (centres undefined), the T/C is 96 % of control (endpoint: mean survival time, dose: 75.0 mg/kg/injection, schedule: Q01DX001 (ip), vehicle: other); 90 % of control (endpoint: mean survival time, dose: 150.0 mg/kg/injection, schedule: Q01DX001 (ip), vehicle: other); 93 % of control (endpoint: mean survival time, dose: 300.0 mg/kg/injection, schedule: Q01DX001 (ip), vehicle: other).
